Results reported in article PMC6153204 (2018).

Assays:
[1] = test system: B09 (DNA, aptamer) GCTAGACGATATTCGTCCATCTCCCGTGCATGCGAGACCGTGAGTTGGACTGACCCGCTTCCGCTGTCAGACTGAATATGTC; experiment: plate saturation binding, absorbance at 450 nm, nonlinear regression; settings: varied aptamer, fixed rongalite; immobilised compound (implied by plate assay); buffer not stated
[2] = test system: A09 (DNA, aptamer) GACATATTCAGTCTGACAGCGGAAGCGGGTCAGTCCAACTCACGGTCTCGCATGCACGGGAGATGGACGAATATCGTCTAGC; experiment: as above; settings: varied aptamer, fixed rongalite; immobilised compound (implied by plate assay); buffer not stated

Kd [1]: 0.03981 ± 0.01273 µM
Kd [2]: 0.06112 ± 0.01636 µM
Compound: O=S(O)CO
